Laboratory results from paper PMC10046369, “Low-Affinity/High-Selectivity Dopamine Transport Inhibition Sufficient to Rescue Cognitive Functions in the Aging Rat” (Biomolecules, 2023).

What was measured:
Assay in all cases: biochemical
Set-up in all cases: KINOMEscan competition binding panel, per cent of control
Conditions in all cases: read-out: %Ctrl @ 2800nM
[1] = biological target: ERBB3 (Homo sapiens, UniProt P21860)
Description: (§1) A panel of binding assays covering 450 human kinases and disease-relevant mutations was performed by DiscoverX (KINOMEscan®, Freemont, CA, USA) according to the standard and validated protocol defined by the contractor. […] Kinase binding assays This study was outsourced to DiscoverX (KINOMEscan®, Freemont, CA, USA) and is compliant with the corresponding project BUY004-01-p-00001. […] Results are reported as percent control (% Ctrl), where lower numbers indicate stronger hits in the matrix on the following page(s). %Ctrl calculation: ((test compound signal-positive control signal) / (negative control signal – positive control signal)) x 100.

[2] = biological target: CSNK2A1 (Homo sapiens, UniProt P68400)
Sequence of CSNK2A1 (P68400 whole entry): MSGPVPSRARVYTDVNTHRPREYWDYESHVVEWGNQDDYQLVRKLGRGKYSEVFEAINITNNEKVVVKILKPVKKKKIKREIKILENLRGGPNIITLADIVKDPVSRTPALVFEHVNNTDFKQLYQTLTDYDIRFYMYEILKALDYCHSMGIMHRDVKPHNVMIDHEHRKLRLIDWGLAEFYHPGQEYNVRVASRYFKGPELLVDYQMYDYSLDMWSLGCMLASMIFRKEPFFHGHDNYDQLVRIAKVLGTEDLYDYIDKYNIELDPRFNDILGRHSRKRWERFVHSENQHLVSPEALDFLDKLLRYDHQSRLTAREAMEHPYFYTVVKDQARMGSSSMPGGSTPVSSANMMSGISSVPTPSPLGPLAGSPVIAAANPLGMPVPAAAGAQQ
Description: as §1

[3] = biological target: RIPK2 (Homo sapiens, UniProt O43353)
Sequence of RIPK2 (O43353 whole entry): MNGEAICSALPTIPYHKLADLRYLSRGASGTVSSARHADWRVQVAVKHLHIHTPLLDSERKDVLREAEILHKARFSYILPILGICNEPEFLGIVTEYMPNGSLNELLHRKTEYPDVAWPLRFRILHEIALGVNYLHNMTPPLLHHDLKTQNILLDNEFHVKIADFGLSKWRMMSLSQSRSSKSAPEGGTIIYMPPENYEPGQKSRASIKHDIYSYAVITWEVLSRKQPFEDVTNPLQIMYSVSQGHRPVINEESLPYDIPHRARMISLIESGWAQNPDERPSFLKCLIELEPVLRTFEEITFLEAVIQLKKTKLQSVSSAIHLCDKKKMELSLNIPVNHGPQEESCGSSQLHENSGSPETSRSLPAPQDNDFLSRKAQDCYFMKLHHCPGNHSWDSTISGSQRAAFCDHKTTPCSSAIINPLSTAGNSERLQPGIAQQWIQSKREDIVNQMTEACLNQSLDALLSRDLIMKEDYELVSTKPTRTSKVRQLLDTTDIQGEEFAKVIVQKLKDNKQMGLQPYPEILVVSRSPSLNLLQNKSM
Description: as §1

[4] = biological target: FGFR2 (Homo sapiens, UniProt P21802)
Description: as §1

[5] = biological target: TIE1 (Homo sapiens, UniProt P35590)
Description: as §1

[6] = biological target: HIPK1 (Homo sapiens, UniProt Q86Z02)
Description: as §1

[7] = biological target: SYK (Homo sapiens, UniProt P43405)
Description: as §1

[8] = biological target: BRAF(V600E) (Homo sapiens, UniProt P15056, V600E)
Description: as §1

[9] = biological target: KIT(D816V) (Homo sapiens, UniProt P10721, D816V)
Description: as §1

[10] = biological target: MARK2 (Homo sapiens, UniProt Q7KZI7)
Description: as §1

[11] = biological target: T1, p38-delta (Homo sapiens, UniProt O15264)
T1 construct: gene MAPK13
Description: as §1

[12] = biological target: EPHA2 (Homo sapiens, UniProt P29317)
Description: as §1

[13] = biological target: T2, MEK5 (Homo sapiens, UniProt Q13163)
T2 construct: gene MAP2K5
Description: as §1

[14] = biological target: T3, GCN2(Kin.Dom.2,S808G) (Homo sapiens, UniProt Q9P2K8, S808G)
T3 construct: gene EIF2AK4; Kin.Dom.2
Description: as §1

[15] = biological target: CAMK2A (Homo sapiens, UniProt Q9UQM7)
Description: as §1

[16] = biological target: PDPK1 (Homo sapiens, UniProt O15530)
Description: as §1

[17] = biological target: PIK3CA(E545A) (Homo sapiens, UniProt P42336, E545A)
Sequence of PIK3CA(E545A) (P42336 whole entry E545A): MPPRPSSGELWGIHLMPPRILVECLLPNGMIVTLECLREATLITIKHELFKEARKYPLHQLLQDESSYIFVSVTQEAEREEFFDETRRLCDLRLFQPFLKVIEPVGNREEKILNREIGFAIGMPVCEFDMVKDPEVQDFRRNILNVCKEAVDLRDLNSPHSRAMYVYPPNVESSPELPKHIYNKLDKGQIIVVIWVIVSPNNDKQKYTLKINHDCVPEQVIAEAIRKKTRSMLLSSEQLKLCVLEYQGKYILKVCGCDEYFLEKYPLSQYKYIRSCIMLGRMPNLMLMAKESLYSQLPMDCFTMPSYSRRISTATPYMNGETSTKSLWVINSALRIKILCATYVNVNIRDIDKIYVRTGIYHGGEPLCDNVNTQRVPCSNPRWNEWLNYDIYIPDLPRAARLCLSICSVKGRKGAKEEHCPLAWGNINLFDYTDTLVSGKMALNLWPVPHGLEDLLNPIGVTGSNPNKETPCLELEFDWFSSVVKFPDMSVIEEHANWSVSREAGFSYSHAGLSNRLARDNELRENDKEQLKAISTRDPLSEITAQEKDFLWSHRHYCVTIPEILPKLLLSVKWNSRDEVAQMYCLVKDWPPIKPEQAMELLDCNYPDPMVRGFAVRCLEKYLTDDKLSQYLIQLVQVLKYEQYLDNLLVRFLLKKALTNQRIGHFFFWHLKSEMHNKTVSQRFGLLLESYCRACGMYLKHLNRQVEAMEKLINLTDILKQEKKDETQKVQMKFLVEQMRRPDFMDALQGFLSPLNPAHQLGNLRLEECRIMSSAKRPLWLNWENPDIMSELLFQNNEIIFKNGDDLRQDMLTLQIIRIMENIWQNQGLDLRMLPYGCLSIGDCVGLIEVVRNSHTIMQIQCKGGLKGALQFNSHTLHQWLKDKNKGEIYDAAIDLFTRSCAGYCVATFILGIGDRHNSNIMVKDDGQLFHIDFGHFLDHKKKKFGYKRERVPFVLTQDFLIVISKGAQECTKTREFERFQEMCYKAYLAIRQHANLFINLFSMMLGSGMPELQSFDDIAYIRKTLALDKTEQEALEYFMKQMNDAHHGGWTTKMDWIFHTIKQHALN
Description: as §1

[18] = biological target: CSF1R (Homo sapiens, UniProt P07333)
Description: as §1

[19] = biological target: LRRK2(G2019S) (Homo sapiens, UniProt Q5S007, G2019S)
Sequence of LRRK2(G2019S) (Q5S007 whole entry G2019S): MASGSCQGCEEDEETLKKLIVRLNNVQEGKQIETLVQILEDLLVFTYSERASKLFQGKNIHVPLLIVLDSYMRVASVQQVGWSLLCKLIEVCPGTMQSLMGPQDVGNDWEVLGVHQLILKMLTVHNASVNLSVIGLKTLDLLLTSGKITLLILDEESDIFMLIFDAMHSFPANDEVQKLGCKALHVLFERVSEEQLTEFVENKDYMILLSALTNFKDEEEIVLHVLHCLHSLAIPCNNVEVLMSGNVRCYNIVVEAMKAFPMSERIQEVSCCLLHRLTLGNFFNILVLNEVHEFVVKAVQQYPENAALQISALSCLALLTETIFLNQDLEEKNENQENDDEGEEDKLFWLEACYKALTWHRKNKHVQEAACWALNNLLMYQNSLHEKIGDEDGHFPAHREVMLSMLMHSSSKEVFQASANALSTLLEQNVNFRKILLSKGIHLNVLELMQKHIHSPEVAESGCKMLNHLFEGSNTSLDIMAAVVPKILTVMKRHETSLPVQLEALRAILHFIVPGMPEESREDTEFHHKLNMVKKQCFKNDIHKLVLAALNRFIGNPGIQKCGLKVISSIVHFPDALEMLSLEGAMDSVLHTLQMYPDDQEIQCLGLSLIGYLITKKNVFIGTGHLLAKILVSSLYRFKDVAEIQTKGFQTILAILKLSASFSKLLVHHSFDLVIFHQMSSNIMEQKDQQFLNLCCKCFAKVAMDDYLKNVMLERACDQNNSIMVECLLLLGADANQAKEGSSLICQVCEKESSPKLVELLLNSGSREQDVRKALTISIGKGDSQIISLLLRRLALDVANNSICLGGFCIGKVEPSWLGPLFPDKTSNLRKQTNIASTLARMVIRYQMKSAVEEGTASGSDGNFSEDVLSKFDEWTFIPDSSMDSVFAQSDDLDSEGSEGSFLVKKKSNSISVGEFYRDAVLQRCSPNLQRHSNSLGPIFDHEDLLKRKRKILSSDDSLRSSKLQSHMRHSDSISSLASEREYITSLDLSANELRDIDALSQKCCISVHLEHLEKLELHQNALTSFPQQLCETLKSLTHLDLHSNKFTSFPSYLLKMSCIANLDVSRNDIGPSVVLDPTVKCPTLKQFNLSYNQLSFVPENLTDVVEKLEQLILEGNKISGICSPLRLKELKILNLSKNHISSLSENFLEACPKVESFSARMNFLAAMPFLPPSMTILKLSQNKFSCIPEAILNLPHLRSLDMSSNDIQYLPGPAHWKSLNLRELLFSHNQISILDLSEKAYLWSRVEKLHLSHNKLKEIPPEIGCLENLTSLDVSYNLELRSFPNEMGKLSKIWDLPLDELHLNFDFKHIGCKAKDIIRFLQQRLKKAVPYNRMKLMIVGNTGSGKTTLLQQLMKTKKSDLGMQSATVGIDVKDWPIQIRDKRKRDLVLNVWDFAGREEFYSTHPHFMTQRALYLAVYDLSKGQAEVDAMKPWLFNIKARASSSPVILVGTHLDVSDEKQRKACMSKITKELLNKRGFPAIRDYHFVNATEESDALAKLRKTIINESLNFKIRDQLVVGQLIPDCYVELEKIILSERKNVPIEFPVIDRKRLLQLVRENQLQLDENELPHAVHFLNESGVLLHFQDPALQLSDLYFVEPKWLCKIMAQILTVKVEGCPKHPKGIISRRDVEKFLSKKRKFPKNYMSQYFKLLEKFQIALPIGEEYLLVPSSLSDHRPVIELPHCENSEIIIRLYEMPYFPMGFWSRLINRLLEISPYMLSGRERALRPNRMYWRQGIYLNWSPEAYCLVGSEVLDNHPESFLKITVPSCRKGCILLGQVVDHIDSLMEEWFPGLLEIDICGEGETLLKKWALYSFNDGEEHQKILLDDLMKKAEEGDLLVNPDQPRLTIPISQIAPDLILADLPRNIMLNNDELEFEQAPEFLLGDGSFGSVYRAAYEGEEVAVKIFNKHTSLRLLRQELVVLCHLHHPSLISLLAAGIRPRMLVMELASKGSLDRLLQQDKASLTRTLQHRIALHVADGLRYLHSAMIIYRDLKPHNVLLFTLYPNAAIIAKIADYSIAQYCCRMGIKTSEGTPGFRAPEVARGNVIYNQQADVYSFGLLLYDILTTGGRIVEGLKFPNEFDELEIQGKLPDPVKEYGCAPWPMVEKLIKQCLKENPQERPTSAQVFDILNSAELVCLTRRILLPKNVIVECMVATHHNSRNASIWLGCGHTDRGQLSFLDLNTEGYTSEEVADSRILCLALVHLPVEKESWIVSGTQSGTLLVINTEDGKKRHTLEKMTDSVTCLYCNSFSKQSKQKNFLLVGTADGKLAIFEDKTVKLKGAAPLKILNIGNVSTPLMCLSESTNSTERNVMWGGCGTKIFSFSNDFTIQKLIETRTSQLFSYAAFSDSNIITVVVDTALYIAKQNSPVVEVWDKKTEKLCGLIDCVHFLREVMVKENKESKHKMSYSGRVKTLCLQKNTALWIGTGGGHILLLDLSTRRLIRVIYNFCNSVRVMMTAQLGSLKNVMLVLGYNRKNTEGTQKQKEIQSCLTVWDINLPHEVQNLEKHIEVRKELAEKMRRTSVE
Description: as §1

[20] = biological target: RIPK1 (Homo sapiens, UniProt Q13546)
Description: as §1

[21] = biological target: T4, AMPK-alpha1 (Homo sapiens, UniProt Q13131)
T4 construct: gene PRKAA1
T4 sequence (Q13131 whole entry): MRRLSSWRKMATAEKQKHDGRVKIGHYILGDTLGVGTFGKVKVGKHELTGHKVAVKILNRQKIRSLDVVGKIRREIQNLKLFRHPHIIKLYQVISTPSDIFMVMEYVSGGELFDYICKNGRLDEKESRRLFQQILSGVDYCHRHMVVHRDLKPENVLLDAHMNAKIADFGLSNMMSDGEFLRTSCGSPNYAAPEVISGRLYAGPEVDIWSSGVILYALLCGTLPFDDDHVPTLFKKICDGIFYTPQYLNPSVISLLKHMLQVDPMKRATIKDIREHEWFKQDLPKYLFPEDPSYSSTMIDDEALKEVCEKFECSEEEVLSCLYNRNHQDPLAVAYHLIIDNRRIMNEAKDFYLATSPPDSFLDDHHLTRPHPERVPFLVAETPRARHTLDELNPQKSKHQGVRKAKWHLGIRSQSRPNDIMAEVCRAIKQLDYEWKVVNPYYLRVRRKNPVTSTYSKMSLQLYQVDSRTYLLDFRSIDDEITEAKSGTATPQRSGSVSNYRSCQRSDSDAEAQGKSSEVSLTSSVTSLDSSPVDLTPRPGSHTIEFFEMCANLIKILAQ
Description: as §1

[22] = biological target: CDKL1 (Homo sapiens, UniProt Q00532)
Description: as §1

[23] = biological target: ROCK1 (Homo sapiens, UniProt Q13464)
Description: as §1

[24] = biological target: TLK1 (Homo sapiens, UniProt Q9UKI8)
Description: as §1

[25] = biological target: T5, HPK1 (Homo sapiens, UniProt Q92918)
T5 construct: gene MAP4K1
Description: as §1

[26] = biological target: T6, JAK2(JH1domain-catalytic) (Homo sapiens, UniProt O60674)
T6 construct: JH1domain-catalytic
Description: as §1

Q: Which remaining binding at 2.8 µM [1] does the source give for [O-][S@@+](Cc1cncs1)C(c1ccccc1)c1ccccc1 [S-CE-123, (S)-5-((Benzhydrylsulfinyl)Methyl)Thiazole] here?
A: The remaining binding at 2.8 µM was 89%.

Q: And the remaining binding at 2.8 µM [2]?
A: Its remaining binding at 2.8 µM is 88%.

Q: What about the remaining binding at 2.8 µM [3] of the same compound?
A: Its remaining binding at 2.8 µM is 100%.

Q: And the remaining binding at 2.8 µM [4]?
A: The remaining binding at 2.8 µM was 87%.

Q: What about the remaining binding at 2.8 µM [5] of the same compound?
A: The remaining binding at 2.8 µM was 100%.

Q: What about the remaining binding at 2.8 µM [6] of the same compound?
A: Its remaining binding at 2.8 µM is 90%.

Q: What about the remaining binding at 2.8 µM [7] of the same compound?
A: Its remaining binding at 2.8 µM is 100%.

Q: And the remaining binding at 2.8 µM [8]?
A: Its remaining binding at 2.8 µM is 100%.

Q: What about the remaining binding at 2.8 µM [9] of the same compound?
A: The remaining binding at 2.8 µM was 97%.

Q: What about the remaining binding at 2.8 µM [10] of the same compound?
A: Its remaining binding at 2.8 µM is 100%.

Q: What about the remaining binding at 2.8 µM [11] of the same compound?
A: Its remaining binding at 2.8 µM is 95%.

Q: What about the remaining binding at 2.8 µM [12] of the same compound?
A: Its remaining binding at 2.8 µM is 73%.

Q: What about the remaining binding at 2.8 µM [13] of the same compound?
A: The remaining binding at 2.8 µM was 98%.

Q: And the remaining binding at 2.8 µM [14]?
A: Its remaining binding at 2.8 µM is 100%.

Q: And the remaining binding at 2.8 µM [15]?
A: The remaining binding at 2.8 µM was 93%.

Q: What about the remaining binding at 2.8 µM [16] of the same compound?
A: Its remaining binding at 2.8 µM is 95%.

Q: And the remaining binding at 2.8 µM [17]?
A: Its remaining binding at 2.8 µM is 93%.

Q: What about the remaining binding at 2.8 µM [18] of the same compound?
A: The remaining binding at 2.8 µM was 76%.

Q: And the remaining binding at 2.8 µM [19]?
A: The remaining binding at 2.8 µM was 96%.

Q: And the remaining binding at 2.8 µM [20]?
A: Its remaining binding at 2.8 µM is 80%.

Q: And the remaining binding at 2.8 µM [21]?
A: Its remaining binding at 2.8 µM is 92%.

Q: What about the remaining binding at 2.8 µM [22] of the same compound?
A: Its remaining binding at 2.8 µM is 100%.

Q: And the remaining binding at 2.8 µM [23]?
A: The remaining binding at 2.8 µM was 100%.

Q: And the remaining binding at 2.8 µM [24]?
A: The remaining binding at 2.8 µM was 91%.

Q: And the remaining binding at 2.8 µM [25]?
A: The remaining binding at 2.8 µM was 89%.

Q: What about the remaining binding at 2.8 µM [26] of the same compound?
A: The remaining binding at 2.8 µM was 100%.
